From patent publication US10959432B2, “Microbiocidal oxadiazole derivatives” (Syngenta Participations AG, priority 2016, dated 2021) come the findings set out here.

The test system of series [1] is Puccinia recondita f. sp. tritici. Put plainly: Fungicidal activity against Puccinia recondita f. sp. tritici / wheat / leaf disc curative (brown rust). Format: in vivo. The note with it: foliar, 200 ppm in the applied formulation, wheat leaf segments cv. Kanzler, curative (applied 1 day after inoculation), assessed 6 to 8 days after application, read-out: disease control compared to untreated control leaf disks. The procedure, abridged:
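Wheat cv. Kanzler leaf segments on agar, spore-inoculated, held dark at 19° C./75% RH; formulated compound in water sprayed 1 day post-inoculation (curative). Incubated 19° C., 75% RH, 12 h light/12 h dark; percent disease control vs untreated scored 6 to 8 days after application.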

Series [2] relates to Phakopsora pachyrhizi. Put plainly: Fungicidal activity against Phakopsora pachyrhizi / soybean / leaf disc preventative (Asian soybean rust). Format: in vivo. The note with it: foliar, 200 ppm in the applied formulation, soybean leaf disks, preventative (inoculated one day after application), assessed 12 to 14 days after application, read-out: disease control compared to untreated control leaf disks. An outline of the steps: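 Soybean leaf discs on water agar sprayed with formulated compound diluted in water; spore suspension sprayed on lower leaf surface one day later. Incubated 24-36 h dark at 20° C, 75% rh, then 20° C, 12 h light/day, 75% rh. Percent disease control versus untreated scored 12 to 14 days after application.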

Series [3] relates to Glomerella laqenarium (Colletotrichum lagenarium). The series is described as follows: Fungicidal activity against Glomerella lagenarium (Colletotrichum lagenarium) liquid culture / cucumber / preventative (anthracnose). In kind it is cell-based. The conditions noted are these: Colletotrichum orbiculare; 20 ppm in the applied formulation; liquid culture in PDB, 24° C., 3 to 4 days after application; read-out: disease control compared to untreated control (inhibition of growth measured photometrically). The procedure, abridged:
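Cryostored conidia mixed into potato dextrose broth and added to test compound (from DMSO solution) in microtiter plates. Incubated at 24 °C; growth inhibition read photometrically 3 to 4 days after application, as percent activity versus untreated check.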

In series [4] the test system is Puccinia recondita f. sp. tritici. Put plainly: Fungicidal activity against Puccinia recondita f. sp. tritici / wheat / leaf disc preventative (brown rust). Format: in vivo. The conditions noted are these: foliar, 200 ppm in the applied formulation, wheat leaf segments cv. Kanzler, preventative (inoculated 1 day after application), assessed 7 to 9 days after application, read-out: disease control compared to untreated control leaf disks. An outline of the steps:
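Wheat cv. Kanzler leaf segments on agar sprayed with formulated compound diluted in water, inoculated with P. recondita spores 1 day later. Incubated at 19C, 75% rh, 12 h light/12 h dark; scored 7 to 9 days after application as percent disease control versus untreated segments. Test rate 200 ppm.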

Series [5] has as its system Uromyces viciae-fabae. The series is described as follows: Fungicidal activity against Uromyces viciae-fabae / field bean / leaf disc preventative (faba-bean rust). Format: in vivo. The note with it: foliar, 288 h, 100 ppm in the applied formulation, field bean leaf discs, preventative (inoculated two hours after application), assessed 12 days after application, read-out: disease control compared to untreated control leaf discs. The procedure, abridged: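 Field bean leaf discs on water agar treated with 10 μl compound in acetone plus spreader, then spray-inoculated on the lower surface with Uromyces viciae-fabae spores 2 h later. Incubation at 22 °C, 18 h day, 70% RH; percent disease control versus untreated scored 12 days after application, compounds at 100 ppm.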

Several values for one entry are separate records, joined by “and”; a condition that tells them apart may be missing. Equal values may be shown once.

Consider `C#CCNC(=O)c1ccc(-c2noc(C(F)(F)F)n2)cc1` [Compound 3a.2, N-prop-2-ynyl-4-[5-(trifluoromethyl)-1,2,4-oxadiazol-3-yl]benzamide], for which the melting point – broadly, the temperature of the solid-liquid transition – lay within 168.5 to 170 °C. Also, the pest or weed control at 200 ppm in series [1] is not below 80%. For the same molecule, in series [2], the pest or weed control at 200 ppm was not below 80%. The inhibition (commonly the share of the control response that was lost under treatment) at 20 ppm in series [3] was not below 80%. The pest or weed control at 200 ppm in series [4] was not below 80%. Further, the pest or weed control at 100 ppm in series [5] is not below 80%.

`CCCNC(=O)c1ccc(-c2noc(C(F)(F)F)n2)cc1F` [Compound 3b.1, 2-fluoro-N-propyl-4-[5-(trifluoromethyl)-1,2,4-oxadiazol-3-yl]benzamide] yielded a melting point of 118.5 to 119.9 °C. Further, the pest or weed control at 200 ppm in series [1] was not below 80%. Besides, the pest or weed control at 200 ppm in series [2] was not below 80%. For the same molecule, the inhibition at 20 ppm in series [3] is not below 80%. Moreover, the pest or weed control at 200 ppm in series [4] was not below 80%. Also, in series [5], the pest or weed control at 100 ppm is not below 80%.

In turn, `CN(C(=O)c1ccc(-c2noc(C(F)(F)F)n2)cc1)c1ncn[nH]1` [Compound 5a.5, N-methyl-N-(1H-1,2,4-triazol-5-yl)-4-[5-(trifluoromethyl)-1,2,4-oxadiazol-3-yl]benzamide] yielded a melting point of 125 to 128 °C. In series [1], the pest or weed control at 200 ppm is not below 80%. In addition, in series [2], the pest or weed control at 200 ppm is not below 80%. Also, in series [3], the inhibition at 20 ppm is not below 80%. Besides, the pest or weed control at 200 ppm in series [4] was not below 80%. The pest or weed control at 100 ppm in series [5] is not below 80%.

Molecule `O=C(NCC1CC1)c1ccc(-c2noc(C(F)(F)F)n2)cc1F` [Compound 2b.1, N-(cyclopropylmethyl)-2-fluoro-4-[5-(trifluoromethyl)-1,2,4-oxadiazol-3-yl]benzamide] had a melting point of 113.5 to 114.7 °C. The pest or weed control at 200 ppm in series [1] was not below 80%. Also, the pest or weed control at 200 ppm in series [2] is not below 80%. In addition, the inhibition at 20 ppm in series [3] was not below 80%. Further, the pest or weed control at 200 ppm in series [4] is not below 80%. Also, the pest or weed control at 100 ppm in series [5] was not below 80%.

Turning to `O=C(NCC1CCOC1)c1ccc(-c2noc(C(F)(F)F)n2)cc1F` (stereo not drawn) [Compound 1b.16, 2-fluoro-N-(tetrahydrofuran-3-ylmethyl)4[5(trifluoromethyl)-1,2,4-oxadiazol-3-yl]benzamide], the melting point is 124.2 to 126.2 °C. For the same molecule, in series [1], the pest or weed control at 200 ppm was not below 80%. In series [2], the pest or weed control at 200 ppm was not below 80%. Besides, the inhibition at 20 ppm in series [3] is not below 80%. In addition, the pest or weed control at 200 ppm in series [4] was not below 80%. Besides, the pest or weed control at 100 ppm in series [5] was not below 80%.

With `O=C(NCc1cnc(Cl)s1)c1ccc(-c2noc(C(F)(F)F)n2)cc1F` [Compound 5b.14, N-[(2-chlorothiazol-5-yl)methyl]-2-fluoro-4-[5-(trifluoromethyl)-1,2,4-oxadiazol-3-yl]benzamide], the melting point lay in the range of 127.8 to 130.8 °C. Moreover, in series [1], the pest or weed control at 200 ppm is not below 80%. Further, in series [2], the pest or weed control at 200 ppm was not below 80%. Further, in series [3], the inhibition at 20 ppm was not below 80%. In series [4], the pest or weed control at 200 ppm was not below 80%. Besides, the pest or weed control at 100 ppm in series [5] is not below 80%.

On to `Cc1nc(CN(C)C(=O)c2ccc(-c3noc(C(F)(F)F)n3)cc2F)cs1` [Compound 5b.15, 2-fluoro-N-methyl-N-[(2-methylthiazol-4-yl)methyl]-4-[5-(trifluoromethyl)-1,2,4-oxadiazol-3-yl]benzamide], for which the melting point was in the range of 96.3 to 98.4 °C. Also, the pest or weed control at 200 ppm in series [1] is not below 80%. Further, the pest or weed control at 200 ppm in series [2] is not below 80%. Further, the inhibition at 20 ppm in series [3] is not below 80%. Besides, the pest or weed control at 200 ppm in series [4] is not below 80%. In addition, the pest or weed control at 100 ppm in series [5] was not below 80%.

In the case of `C=CCNC(=O)c1ccc(-c2noc(C(F)(F)F)n2)cc1F` [Compound 3b.3, N-allyl-2-fluoro-4-[5-(trifluoromethyl)-1,2,4-oxadiazol-3-yl]benzamide], the melting point lay in the range of 108 to 109.3 °C. In addition, the pest or weed control at 200 ppm in series [1] was not below 80%. The pest or weed control at 200 ppm in series [2] is not below 80%. Also, the inhibition at 20 ppm in series [3] is not below 80%. Further, in series [4], the pest or weed control at 200 ppm was not below 80%. Moreover, the pest or weed control at 100 ppm in series [5] is not below 80%.

As for `O=C(NCC1CCCO1)c1ccc(-c2noc(C(F)(F)F)n2)cc1F` (stereo not drawn) [Compound 1b.17, 2-fluoro-N-(tetrahydrofuran-2-ylmethyl)-4-[5-(trifluoromethyl)-1,2,4-oxadiazol-3-yl]benzamide], the melting point lay in the range of 95.6 to 96.7 °C. Further, the pest or weed control at 200 ppm in series [1] is not below 80%. Also, the pest or weed control at 200 ppm in series [2] was not below 80%. Further, in series [3], the inhibition at 20 ppm was not below 80%. For the same molecule, the pest or weed control at 200 ppm in series [4] is not below 80%. Besides, the pest or weed control at 100 ppm in series [5] was not below 80%.

Take `CC1CC(NC(=O)c2ccc(-c3noc(C(F)(F)F)n3)cc2F)=NO1` (stereo not drawn) [Compound 1b.15, 2-fluoro-N-(5-methyl-4,5-dihydroisoxazol-3-yl)-4-[5-(trifluoromethyl)-1,2,4-oxadiazol-3-yl]benzamide]: the melting point lay in the range of 152.5 to 155.9 °C. The pest or weed control at 200 ppm in series [1] is not below 80%. Further, the pest or weed control at 200 ppm in series [2] was not below 80%. Further, in series [3], the inhibition at 20 ppm is not below 80%. For the same molecule, the pest or weed control at 200 ppm in series [4] is not below 80%. In addition, in series [5], the pest or weed control at 100 ppm is not below 80%.

On to `O=C(NCC1CCOCC1)c1ccc(-c2noc(C(F)(F)F)n2)cc1F` [Compound 1b.18, 2-fluoro-N-(tetrahydropyran-4-ylmethyl)-4-[5-(trifluoromethyl)-1,2,4-oxadiazol-3-yl]benzamide], for which the melting point was 134 to 136 °C and 134 to 135.4 °C. Further, the pest or weed control at 200 ppm in series [1] was not below 80%. For the same molecule, the pest or weed control at 200 ppm in series [2] was not below 80%. For the same molecule, the inhibition at 20 ppm in series [3] was not below 80%. Also, the pest or weed control at 200 ppm in series [4] is not below 80%. Besides, the pest or weed control at 100 ppm in series [5] was not below 80%.

In the case of `COCCNC(=O)c1ccc(-c2noc(C(F)(F)F)n2)cc1F` [Compound 3b.6, 2-fluoro-N-(2-methoxyethyl)-4-[5-(trifluoromethyl)-1,2,4-oxadiazol-3-yl]benzamide], the melting point is 87.6 to 89 °C. For the same molecule, the pest or weed control at 200 ppm in series [1] is not below 80%. For the same molecule, in series [2], the pest or weed control at 200 ppm is not below 80%. Besides, the inhibition at 20 ppm in series [3] was not below 80%. For the same molecule, in series [4], the pest or weed control at 200 ppm is not below 80%. The pest or weed control at 100 ppm in series [5] was not below 80%.

The molecule `CCNC(=O)c1ccc(-c2noc(C(F)(F)F)n2)cc1F` [Compound 3b.2, N-ethyl-2-fluoro-4-[5-(trifluoromethyl)-1,2,4-oxadiazol-3-yl]benzamide] showed a melting point of 125 to 127 °C. Moreover, the pest or weed control at 200 ppm in series [1] was not below 80%. Further, the pest or weed control at 200 ppm in series [2] is not below 80%. For the same molecule, the inhibition at 20 ppm in series [3] was not below 80%. Besides, the pest or weed control at 200 ppm in series [4] was not below 80%. In series [5], the pest or weed control at 100 ppm is not below 80%.

`CC(NC(=O)c1ccc(-c2noc(C(F)(F)F)n2)cc1)c1ccccc1` (stereo not drawn) [Compound 4a.5, N-(1-phenylethyl)-4-[5-(trifluoromethyl)-1,2,4-oxadiazol-3-yl]benzamide]: the melting point was 144 to 148 °C. In addition, the pest or weed control at 200 ppm in series [1] is not below 80%. Moreover, the pest or weed control at 200 ppm in series [2] is not below 80%. In series [3], the inhibition at 20 ppm was not below 80%. Further, the pest or weed control at 200 ppm in series [4] is not below 80%. Also, the pest or weed control at 100 ppm in series [5] was not below 80%.

Take `CC(C)CNC(=O)c1ccc(-c2noc(C(F)(F)F)n2)cc1F` [Compound 3b.5, 2-fluoro-N-isobutyl-4-[5-(trifluoromethyl)-1,2,4-oxadiazol-3-yl]benzamide]: the melting point fell in the range of 126.6 to 128.3 °C. Moreover, the pest or weed control at 200 ppm in series [1] is not below 80%. For the same molecule, the pest or weed control at 200 ppm in series [2] was not below 80%. Further, the inhibition at 20 ppm in series [3] is not below 80%. In series [4], the pest or weed control at 200 ppm is not below 80%. The pest or weed control at 100 ppm in series [5] is not below 80%.
